Results reported in ChEMBL document CHEMBL1201862, “PubChem BioAssay data set” (2004).
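Results reflect a 48-hour exposure of cells in 96-well plates to compound at five concentrations. Here, GI50 denotes the concentration required for 50% inhibition of growth.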 Calls of active or inactive are those of the source. Cut-off read from the data, not from the text of the source: active = GI50 up to about 1.1 µM and inactive = higher.

Assays:
Test in all cases: inhibition of tumour cell growth, NCI panel, 48 h
OVCAR-4 = tested on: OVCAR-4
HCT-15 = tested on: HCT-15
COLO 205 = tested on: COLO 205
DU-145 = tested on: DU-145
SF-539 = tested on: SF-539
NCI/ADR-RES = tested on: NCI/ADR-RES
RXF 393 = tested on: RXF 393
HOP-62 = tested on: HOP-62
Malme-3M = tested on: Malme-3M
RPMI-8226 = tested on: RPMI-8226
HCT-116 = tested on: HCT-116
SK-MEL-2 = tested on: SK-MEL-2
HT-29 = tested on: HT-29
SK-MEL-5 = tested on: SK-MEL-5
NCI-H522 = tested on: NCI-H522
SW-620 = tested on: SW-620
A498 = tested on: A498
786-0 = tested on: 786-0
BT-549 = tested on: BT-549
OVCAR-5 = tested on: OVCAR-5

Compound | GI50 (OVCAR-4) | GI50 (HCT-15) [µM] | GI50 (COLO 205) | GI50 (DU-145) | GI50 (SF-539) | GI50 (NCI/ADR-RES) | GI50 (RXF 393) | GI50 (HOP-62) | GI50 (Malme-3M) | GI50 (RPMI-8226) | GI50 (HCT-116) | GI50 (SK-MEL-2) | GI50 (HT-29) | GI50 (SK-MEL-5) | GI50 (NCI-H522) | GI50 (SW-620) | GI50 (A498) | GI50 (786-0) | GI50 (BT-549) | GI50 (OVCAR-5)
NC(=O)C1CCN(Cc2c(Cl)c(Cl)c(CN3CCC(C(N)=O)CC3)c(Cl)c2Cl)CC1 | > 100 µM (inactive) | > 100 | > 100 µM (inactive) | > 100 µM (inactive) | 28.4 µM (inactive) | > 100 µM (inactive) | 52.6 µM (inactive) | 11.6 µM (inactive) | 90.8 µM (inactive) | > 100 µM (inactive) | > 100 µM (inactive) | 42.9 µM (inactive) | > 100 µM (inactive) | > 100 µM (inactive) | > 100 µM (inactive) | > 100 µM (inactive) | 28.3 µM (inactive) | 77.1 µM (inactive) | > 100 µM (inactive) | > 100 µM (inactive)
c1ccc2c(c1)[n-]n1c3ccc4nonc4c3n[n+]21 | > 100 µM (inactive) | > 100 | > 100 µM (inactive) | > 100 µM (inactive) | > 100 µM (inactive) | > 100 µM (inactive) | > 100 µM (inactive) | 84.5 µM (inactive) | > 100 µM (inactive) | > 100 µM (inactive) | > 100 µM (inactive) | > 100 µM (inactive) | > 100 µM (inactive) | > 100 µM (inactive) | > 100 µM (inactive) | > 100 µM (inactive) | > 100 µM (inactive) | > 100 µM (inactive) | > 100 µM (inactive) | > 100 µM (inactive)
COc1c(Cl)ccc(Cl)c1C(=O)NNC(=O)c1c(Cl)c(Cl)c(Cl)c(Cl)c1-c1nc2cc(C(=O)c3ccccc3)ccc2[nH]1 | 44.9 µM (inactive) | 35 | 47.4 µM (inactive) | > 100 µM (inactive) | > 100 µM (inactive) | > 100 µM (inactive) | 19.5 µM (inactive) | 82 µM (inactive) | 54.3 µM (inactive) | 24.2 µM (inactive) | 66.7 µM (inactive) | 31.9 µM (inactive) | 62.1 µM (inactive) | 25.2 µM (inactive) | 33.1 µM (inactive) | > 100 µM (inactive) | 61.2 µM (inactive) | 72.4 µM (inactive) | 67.3 µM (inactive) | > 100 µM (inactive)
COc1ccc(C2=C(Cl)c3cc(OC)c(OC)cc3C2Cl)cc1 (stereo not given) | 13.6 µM (inactive) | 12.3 | 17.5 µM (inactive) | 17.9 µM (inactive) | 15.3 µM (inactive) | 12.7 µM (inactive) | 14.5 µM (inactive) | 17.8 µM (inactive) | 19.1 µM (inactive) | 8.17 µM (inactive) | 14.2 µM (inactive) | 12.1 µM (inactive) | 14.8 µM (inactive) | 13.7 µM (inactive) | 12.5 µM (inactive) | 15.3 µM (inactive) | 13.2 µM (inactive) | 12.2 µM (inactive) | 3.78 µM (inactive) | 15.5 µM (inactive)
CCCOC(=O)c1cc(O)c(O)c(O)c1 [PROPYL GALLATE] | > 100 µM (inactive) | 20.7 | > 100 µM (inactive) | 30.3 µM (inactive) | 10.9 µM (inactive) | 26.5 µM (inactive) | 19.3 µM (inactive) | 33.8 µM (inactive) | 74.6 µM (inactive) | > 100 µM (inactive) | 20.8 µM (inactive) | 28.1 µM (inactive) | 32.2 µM (inactive) | 59.3 µM (inactive) | 8.2 µM (inactive) | 51.3 µM (inactive) | > 100 µM (inactive) | 41.4 µM (inactive) | 43.8 µM (inactive) | 49.9 µM (inactive)
